Laboratory results reported in patent US20230146395A1, “Substituted Pyrimidines and Uses Thereof” (Verge Analytics, Inc., priority 2020, published 2023).
Structures can show the parent of a compound that is named as a salt.

Target: T1, Full length human recombinant PIKFYVE (Homo sapiens, UniProt Q9Y2I7)
T1 construct: Full length human recombinant PIKFYVE; purchased Carna Biosciences (Kobe, Japan); host or cells: baculovirus expression system
Assay: Inhibition of PIKfyve (microfluidic electrophoresis kinase assay, PI3P/PS substrate)
Type: biochemical
Conditions: 12 concentrations
Protocol: Full length human recombinant PIKFYVE expressed in baculovirus expression system as N-terminal GST-fusion protein (265 kDa) was obtained from Carna Biosciences (Kobe, Japan). The kinase substrate was prepared by mixing and sonicating fluorescently-labeled phosphatidylinositol 3-phosphate (PI3P) with phospho-L-serine (PS) at a 1:10 ratio in 50 mM HEPES buffer pH 7.5.
The kinase reactions were assembled in 384-well plates (Greiner) in a total volume of […] as follows. Kinase protein was pre-diluted in an assay buffer comprising 25 mM HEPES, pH 7.5, 1 mM DTT, 2.5 mM MgCl2, and 2.5 mM MnCl2, and 0.005% Triton X-100, and dispensed into a 384-well plate (10 μL per well). Test compounds were serially pre-diluted in DMSO and added to the protein samples by acoustic dispensing (Labcyte Echo). The concentration of DMSO was equalized to 1% in all samples. All test compounds were tested at 12 concentrations. Apilimod was used as a reference compound and was tested in identical manner in each assay plate. Control samples (0%-inhibition, in the absence of inhibitor, DMSO only) and 100%-inhibition (in the absence of enzyme) were assembled in replicates of four and were used to calculate %-inhibition in the presence of compounds. The reactions were initiated by addition of 10 μL of 2×PI3P/PS substrate supplemented with ATP. The final concentration of enzyme was 2 nM, the final concentration of ATP was […], and the final concentration of PI3P/PS substrate was 1 μM (PI3P). The kinase reactions were allowed to proceed for 3 h at room temperature. Following incubation, the reactions were quenched by addition of […] of termination buffer (100 mM HEPES, pH 7.5, 0.01% Triton X-100, 20 mM EDTA). Terminated plates were analyzed on a microfluidic electrophoresis instrument (Caliper LabChip® 3000, Caliper Life Sciences/Perkin Elmer). The change in the relative fluorescence intensity of the PI(3)P substrate and PI(3,5)P product peaks was measured. The activity in each test sample was determined as the product to sum ratio (PSR): P/(S+P), where P is the peak height of the product, and S is the peak height of the substrate. Percent inhibition (Pinh) was determined using the following equation:
Pinh=(PSR0% inh−PSRcompound)/(PSR0% inh−PSR100% inh)*100
in which PSRcompound is the product/sum ratio in the presence of compound, PSR0% inh is the product/sum ratio in the absence of compound, and the PSR100% inh is the product/sum ratio in the absence of the enzyme.

T1 sequence (Q9Y2I7 whole entry): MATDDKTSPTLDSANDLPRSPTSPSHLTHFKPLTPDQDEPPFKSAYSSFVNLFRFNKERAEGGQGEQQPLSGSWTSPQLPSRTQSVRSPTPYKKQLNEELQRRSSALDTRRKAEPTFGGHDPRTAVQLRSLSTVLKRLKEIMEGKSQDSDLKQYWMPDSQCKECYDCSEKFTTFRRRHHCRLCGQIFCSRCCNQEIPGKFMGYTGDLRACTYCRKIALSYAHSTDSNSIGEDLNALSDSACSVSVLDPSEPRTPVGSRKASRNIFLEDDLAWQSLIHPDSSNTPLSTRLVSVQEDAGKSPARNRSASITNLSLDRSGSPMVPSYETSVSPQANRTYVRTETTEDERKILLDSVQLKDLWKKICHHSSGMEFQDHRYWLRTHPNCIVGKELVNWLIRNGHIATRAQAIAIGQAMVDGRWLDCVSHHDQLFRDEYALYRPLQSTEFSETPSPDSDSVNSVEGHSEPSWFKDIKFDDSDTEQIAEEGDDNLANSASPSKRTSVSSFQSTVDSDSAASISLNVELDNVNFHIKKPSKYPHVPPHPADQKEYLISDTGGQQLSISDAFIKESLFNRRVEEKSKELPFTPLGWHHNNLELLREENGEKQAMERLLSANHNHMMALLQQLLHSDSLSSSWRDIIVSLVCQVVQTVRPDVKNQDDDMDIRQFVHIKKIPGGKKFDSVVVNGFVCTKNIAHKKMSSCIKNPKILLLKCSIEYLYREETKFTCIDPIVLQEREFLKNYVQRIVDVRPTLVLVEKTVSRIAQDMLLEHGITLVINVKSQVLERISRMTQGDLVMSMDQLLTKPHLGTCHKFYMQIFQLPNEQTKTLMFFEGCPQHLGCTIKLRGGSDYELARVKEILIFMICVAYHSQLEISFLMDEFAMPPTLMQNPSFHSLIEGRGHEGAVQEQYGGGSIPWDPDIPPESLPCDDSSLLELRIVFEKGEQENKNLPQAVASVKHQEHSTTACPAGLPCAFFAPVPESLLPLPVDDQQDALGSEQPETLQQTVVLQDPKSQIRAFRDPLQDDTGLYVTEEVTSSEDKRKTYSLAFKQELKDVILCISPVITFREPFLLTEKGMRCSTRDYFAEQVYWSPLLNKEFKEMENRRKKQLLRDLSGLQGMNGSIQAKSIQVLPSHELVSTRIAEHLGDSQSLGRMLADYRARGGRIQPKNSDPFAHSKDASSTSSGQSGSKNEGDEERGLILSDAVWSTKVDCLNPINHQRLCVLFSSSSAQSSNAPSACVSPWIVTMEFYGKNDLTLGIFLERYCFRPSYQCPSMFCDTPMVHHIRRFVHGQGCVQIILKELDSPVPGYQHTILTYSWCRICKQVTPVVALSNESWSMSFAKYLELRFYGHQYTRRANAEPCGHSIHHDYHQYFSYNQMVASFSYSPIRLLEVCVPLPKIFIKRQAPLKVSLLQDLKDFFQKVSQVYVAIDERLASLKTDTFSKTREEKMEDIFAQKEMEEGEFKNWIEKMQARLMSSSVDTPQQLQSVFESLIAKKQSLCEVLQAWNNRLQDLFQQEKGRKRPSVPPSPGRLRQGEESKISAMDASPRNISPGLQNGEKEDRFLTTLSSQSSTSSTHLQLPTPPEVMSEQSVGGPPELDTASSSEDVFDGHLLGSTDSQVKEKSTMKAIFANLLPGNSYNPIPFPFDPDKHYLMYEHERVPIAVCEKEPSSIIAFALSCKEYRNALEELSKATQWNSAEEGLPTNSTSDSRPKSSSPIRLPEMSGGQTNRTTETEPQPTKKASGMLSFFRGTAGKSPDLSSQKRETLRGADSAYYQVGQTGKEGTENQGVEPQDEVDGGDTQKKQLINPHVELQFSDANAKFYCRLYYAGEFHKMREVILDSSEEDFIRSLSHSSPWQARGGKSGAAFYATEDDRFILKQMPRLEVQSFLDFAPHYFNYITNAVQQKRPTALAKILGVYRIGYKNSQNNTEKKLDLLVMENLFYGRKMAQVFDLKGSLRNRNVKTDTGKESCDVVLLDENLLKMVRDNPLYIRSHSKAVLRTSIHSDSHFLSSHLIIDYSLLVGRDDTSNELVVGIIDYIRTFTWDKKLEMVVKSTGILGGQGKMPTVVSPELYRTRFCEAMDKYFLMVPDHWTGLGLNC

Row | Structure (SMILES) | IC50
1 | CN(CC1CC1)C(=O)c1cc2nc(-n3cc(-c4ccccc4)cn3)nc(N3CCOCC3)c2o1 [Compound 66, N-(cyclopropylmethyl)-N-methyl-4-morpholino-2-(4-phenyl-1H-pyrazol-1-yl)furo[3,2-d]pyrimidine-6-carboxamide] | 612 nM
2 | O=C(c1cc2nc(-n3cc(-c4ccccc4)cn3)nc(N3CCOCC3)c2o1)N1CCC1 [Compound 67, azetidin-1-yl(4-morpholino-2-(4-phenyl-1H-pyrazol-1-yl)furo[3,2-d]pyrimidin-6-yl)methanone] | 928 nM
3 | c1cc(-c2cc3nc(Nc4cc(C5CC5)n[nH]4)nc(N4CCOCC4)c3o2)ccn1 [Compound 68, N-(5-cyclopropyl-1H-pyrazol-3-yl)-4-morpholino-6-(pyridin-4-yl)furo[3,2-d]pyrimidin-2-amine, hydrogen chloride] | 185 nM
4 | c1cc(-c2cc3nc(Nc4cc(CC5CC5)n[nH]4)nc(N4CCOCC4)c3o2)ccn1 [Compound 69, N-(3-(cyclopropylmethyl)-1H-pyrazol-5-yl)-4-morpholino-6-(pyridin-4-yl)furo[3,2-d]pyrimidin-2-amine hydrochloride] | 338 nM
5 | c1cc(-c2cc3nc(Nc4cc(CC5CCC5)n[nH]4)nc(N4CCOCC4)c3o2)ccn1 [Compound 71] | 79.8 nM
6 | FC(F)(F)c1cc(Nc2nc(N3CCOCC3)c3oc(-c4ccncc4)cc3n2)[nH]n1 [Compound 72, 4-morpholino-6-(pyridin-4-yl)-N-(5-(trifluoromethyl)-1H-pyrazol-3-yl)furo[3,2-d]pyrimidin-2-amine, hydrogen chloride] | 552 nM
7 | c1ccc(Cc2cc(Nc3nc(N4CCOCC4)c4oc(-c5ccncc5)cc4n3)[nH]n2)cc1 [Compound 73, N-(5-benzyl-1H-pyrazol-3-yl)-4-morpholino-6-(pyridin-4-yl)furo[3,2-d]pyrimidin-2-amine, hydrogen chloride] | 141 nM
8 | c1cc(-c2cc3nc(Nc4cc(C5CCCC5)n[nH]4)nc(N4CCOCC4)c3o2)ccn1 [Compound 74, N-(5-cyclopentyl-1H-pyrazol-3-yl)-4-morpholino-6-(pyridin-4-yl)furo[3,2-d]pyrimidin-2-amine, hydrogen chloride] | 224 nM
9 | c1csc(-c2cc(Nc3nc(N4CCOCC4)c4oc(-c5ccncc5)cc4n3)[nH]n2)c1 [Compound 75, 4-morpholino-6-(pyridin-4-yl)-N-(5-(thiophen-2-yl)-1H-pyrazol-3-yl)furo[3,2-d]pyrimidin-2-amine, hydrogen chloride] | 1.4 nM
10 | c1cc(-c2cc3nc(Nc4cc(-c5ccsc5)n[nH]4)nc(N4CCOCC4)c3o2)ccn1 [Compound 76, 4-morpholino-6-(pyridin-4-yl)-N-(5-(thiophen-3-yl)-1H-pyrazol-3-yl)furo[3,2-d]pyrimidin-2-amine, hydrogen chloride] | 1.1 nM
11 | CC(C)c1cc(Nc2nc(N3CCOCC3)c3oc(-c4ccncc4)cc3n2)[nH]n1 [Compound 77, N-(5-isopropyl-1H-pyrazol-3-yl)-4-morpholino-6-(pyridin-4-yl)furo[3,2-d]pyrimidin-2-amine, hydrogen chloride] | 175 nM
12 | CNC(=O)c1cc2nc(Nc3cc(C4CC4)n[nH]3)nc(N3CCOCC3)c2o1 [Compound 78, 2-((3-cyclopropyl-1H-pyrazol-5-yl)amino)-N-methyl-4-morpholinofuro[3,2-d]pyrimidine-6-carboxamide hydrochloride] | 7850 nM
13 | CNC(=O)c1cc2nc(Nc3cc(CC4CC4)n[nH]3)nc(N3CCOCC3)c2o1 [Compound 79, 2-((5-(cyclopropylmethyl)-1H-pyrazol-3-yl)amino)-N-methyl-4-morpholinofuro[3,2-d]pyrimidine-6-carboxamide, hydrogen chloride] | ≥ 10000 nM
14 | CNC(=O)c1cc2nc(Nc3cc(C(F)(F)F)n[nH]3)nc(N3CCOCC3)c2o1 [Compound 81, N-methyl-4-morpholino-2-((5-(trifluoromethyl)-1H-pyrazol-3-yl)amino)furo[3,2-d]pyrimidine-6-carboxamide, hydrogen chloride] | ≥ 10000 nM
15 | CNC(=O)c1cc2nc(Nc3cc(Cc4ccccc4)n[nH]3)nc(N3CCOCC3)c2o1 [Compound 82] | 1390 nM
16 | CNC(=O)c1cc2nc(Nc3cc(-c4cccs4)n[nH]3)nc(N3CCOCC3)c2o1 [Compound 85, N-methyl-4-morpholino-2-((5-(thiophen-2-yl)-1H-pyrazol-3-yl)amino)furo[3,2-d]pyrimidine-6-carboxamide, hydrogen chloride] | 69 nM
17 | CNC(=O)c1cc2nc(Nc3cc(-c4ccsc4)n[nH]3)nc(N3CCOCC3)c2o1 [Compound 86, N-methyl-4-morpholino-2-((5-(thiophen-3-yl)-1H-pyrazol-3-yl)amino)furo[3,2-d]pyrimidine-6-carboxamide, hydrogen chloride] | 61 nM
18 | CNC(=O)c1cc2nc(Nc3cc(C(C)C)n[nH]3)nc(N3CCOCC3)c2o1 [Compound 88, 2-((5-isopropyl-1H-pyrazol-3-yl)amino)-N-methyl-4-morpholinofuro[3,2-d]pyrimidine-6-carboxamide, hydrogen chloride] | 7400 nM
19 | CNC(=O)c1cc2nc(-n3ccc(-c4cccc(C)c4)n3)nc(N3CCOCC3)c2o1 [Compound 92, N-methyl-4-morpholino-2-(3-(m-tolyl)-1H-pyrazol-1-yl)furo[3,2-d]pyrimidine-6-carboxamide] | 91.5 nM

Results, then the compound that gave them:

Row | IC50 | Structure (SMILES)
20 | 86.7 nM | Cc1cccc(-c2ccn(-c3nc(N4CCOCC4)c4oc(C(N)=O)cc4n3)n2)c1 [Compound 94, 4-morpholino-2-(3-(m-tolyl)-1H-pyrazol-1-yl)furo[3,2-d]pyrimidine-6-carboxamide]
21 | 78.7 nM | Cc1cccc(-c2ccn(-c3nc(N4CCOCC4)c4oc(C(=O)NS(C)(=O)=O)cc4n3)n2)c1 [Compound 98, N-(methylsulfonyl)-4-morpholino-2-(3-(m-tolyl)-1H-pyrazol-1-yl)furo[3,2-d]pyrimidine-6-carboxamide]
22 | 78.3 nM | CONC(=O)c1cc2nc(-n3ccc(-c4cccc(C)c4)n3)nc(N3CCOCC3)c2o1 [Compound 99, N-methoxy-4-morpholino-2-(3-(m-tolyl)-1H-pyrazol-1-yl)fur[3,2-d]pyrimidine-6-carboxamide]
23 | 49.3 nM | O=C(NCC1CC1)c1cc2nc(-n3cc(-c4ccccc4)cn3)nc(N3CCOCC3)c2o1 [Compound 116, N-(cyclopropylmethy 1)-4-morpholino-2-(4-phenyl-1H-pyrazol-1-yl)furo[3,2-d]pyrimidine-6-carboxamide]
24 | 311 nM | COCCNC(=O)c1cc2nc(-n3cc(-c4ccccc4)cn3)nc(N3CCOCC3)c2o1 [Compound 118, N-(2-methoxyethyl)-4-morpholino-2-(4-phenyl-1H-pyrazol-1-yl)furo[3,2-d]pyrimidine-6-carboxamide]
25 | 12.7 nM | Cc1cccc(-c2ccn(-c3nc(N4CCOCC4)c4oc(-c5ccccn5)c(C)c4n3)n2)c1 [Compound 122, 7-methyl-4-morpholino-6-(pyridin-2-yl)-2-(3-(m-tolyl)-1H-pyrazol-1-yl)furo[3,2-d]pyrimidine]
26 | 66.2 nM | Cc1cccc(-c2cnn(-c3nc(N4CCOCC4)c4oc(C(=O)NCCS(=O)(=O)N(C)C)cc4n3)c2)c1 [Compound 128, N-(2-(N,N-dimethylsulfamoyl)ethyl)-4-morpholino-2-(4-(m-tolyl)-1H-pyrazol-1-yl)furo[3,2-d]pyrimidine-6-carboxamide]
27 | > 20000 nM | Cc1cccc(-c2cnn(-c3nc(N4CC(F)(F)OC(F)(F)C4)c4oc(-c5cccnc5)cc4n3)c2)c1 [Compound 133, 6-(pyridin-3-yl)-4-(2,2,6,6-tetrafluoromorpholino)-2-(4-(m-tolyl)-1H-pyrazol-1-yl)furo[3,2-d]pyrimidine]
28 | > 20000 nM | CCNC(=O)c1cc2nc(-n3cc(-c4cccc(C)c4)cn3)nc(N3CC(F)(F)OC(F)(F)C3)c2o1 [Compound 134, N-ethyl-4-(2,2,6,6-tetrafluoromorpholino)-2-(4-(m-tolyl)-1H-pyrazol-1-yl)furo[3,2-d]pyrimidine-6-carboxamide]
29 | 147 nM | O=C(c1cc2nc(Nc3cc(-c4ccccc4)[nH]n3)nc(N3CCOCC3)c2o1)N1CCOCC1 [Compound 135, morpholino(4-morpholino-2-((5-phenyl-1H-pyrazol-3-yl)amino)furo[3,2-d]pyrimidin-6-yl)methanone]
30 | 94 nM | CN1CCN(C(=O)c2cc3nc(Nc4cc(-c5ccccc5)[nH]n4)nc(N4CCOCC4)c3o2)CC1 [Compound 136, (4-methylpiperazin-1-yl)(4-morpholino-2-((5-phenyl-1H-pyrazol-3-yl)amino)furo[3,2-d]pyrimidin-6-yl)methanone]
